Results reported in patent publication US20050027016A1, “Polyamine compounds and compositions for use in conjection with cancer therapy” (priority 2002, published 2005).
Like-named read-outs stand apart in the source and are kept apart here. Each block holds one compound with its values, some of them ahead of it.

What was measured:
[1] = system: Cytoxan-induced alopecia in the rat model; assay type: in vivo; details: rat pups, 35 ug/gm i.p., approximately 7 days after challenge
Source text: FIGS. 6A-6E illustrate the efficacy of each of the indicated chemoprotective polyamines in protecting against Cytoxan-induced alopecia in the rat model Hussein et al., 1990, infra). In this protocol (See Example 2), chemoprotective polyamines are applied topically to the rat pups' backs in an alcohol:water delivery vehicle, once per day, for five days before and five days after a single systemic dose of Cytoxan.
The efficacy of […] polyamines in reducing or preventing chemotherapy-induced alopecia in a rat model was examined. This animal model mimics many of the features found in chemotherapy-induced alopecia seen in humans and is considered a clinically relevant model for testing novel therapeutics.
Induction of alopecia by cytoxan (CTX). Lactating Sprague Dawley mother rats with rat pups were purchased from Harlan Sprague Dawley (Indianapolis, Ind.). The mother rats were given food and water ad libitum. The rats pups were tested in the model of chemotherapy-induced alopecia described by Hussein A. M. et al., Science: 249, 1564 (1990). Cytoxan (CTX), a chemotherapeutic widely used in the treatment of cancer, was used to induce alopecia in the rats. […]
Approximately 7 to 10 days after CTX treatment, the pups were evaluated for alopecia Hair loss was evaluated using a modified alopecia-scoring index described by Chen G. et al., Int. […]

[2] = system: 23SK skin cells; assay: Cell cycle distribution by flow cytometry in 23SK skin cells; assay type: cell-based, human; details: for Cell Cycle Distribution At IC80 Dose: G1 / Cell Cycle Distribution At IC80 Dose: G2/M / Cell Cycle Distribution At IC80 Dose: S: 23SK cells
Source text: FIGS. 5A-5D are cell histograms showing the results from flow cytometry analysis of chemoprotective polyamine-treated 23SK skin cells.
In FIG. 5, cell histograms showing the results from flow cytometry analysis of chemoprotective polyamine-treated 23SK skin cells are shown. […] The transient nature of the cell cycle block induced by chemoprotective polyamines is believed to be an important aspect of their efficacy, i.e., their ability to block cell cycle progression in stem cells during the course of chemo- or radiotherapy, and the resumption of normal stem cell division after a given cancer therapy course has been completed.

[3] = system: primary, diploid fibroblasts isolated from human skin; assay: In vitro growth inhibition of primary diploid human skin fibroblasts; assay type: cell-based
Procedure: FIG. 2 illustrates the relationship between the number of aliphatic carbon atoms in each chemoprotective polyamine side chain (‘arm’) and the respective IC50 dose for inhibition of human fibroblast growth.
The in vitro growth inhibitory effects of certain of the chemoprotective polyamines of the invention were measured using primary, diploid fibroblasts isolated from human skin.

[4] = target: helical B-DNA; assay: DNA binding/denaturation/precipitation from solution
Source text: The chemoprotective polyamines of the invention are also able to bind, denature and precipitate DNA from solution As is known in the field, as the concentration of polyamine is increased, there is a point where polyamine binding to helical B-DNA induces single-stranded ‘bubbles’ and conversion to other forms of DNA structure, such as 2-DNA (Feuerstein, B. et al. Nuc. Acids Res. 17:6883-6892, 1989; Basu, H. and Marton, L. Biochem. J. 244:243-246, 1987), as well as precipitating the DNA from solution.
This relationship between arm length of the chemoprotective polyamine and increased ability to disrupt and denature B-DNA structure is also a unique aspect of this invention. The increased ability to bind DNA and disrupt its helical structure may also contribute to the molecule's ability to protect cellular DNA against electrophilic chemotherapy drug metabolites and against oxygen free radicals generated during radiotherapy. Both of these toxic modalities are believed to require normal B-DNA helical structure within the cell's nuclear DNA in order to achieve chemical or physical disruption of the cellular DNA, the first step in the apoptotic cascade.

[5] = system: p21; assay: p21 induction in 23SK human skin cells by western analysis; assay type: cell-based; details: 30 hr exposure
Procedure: FIGS. 3A and 3B illustrate the level of induced p21 protein seen in diploid human fibroblasts after a 30 hr exposure to each of the indicated chemoprotective polyamines. […] In these experiments, the 23SK human skin cells were exposed for 30 hr to an “ICso” dose of each of the indicated chemoprotective polyamines and then lysed. Cell extracts were then prepared in order to measure p21 levels by western analysis (FIG. 3A).
FIG. 3 illustrates that chemoprotective polyamines are able to induce expression of the negative cell cycle regulatory protein, p21, after exposing the human skin cells to the polyamine molecules. […] In these experiments, the 23SK human skin cells were exposed for 30 hr to an “IC80” dose of each of the indicated chemoprotective polyamines and then lysed. Cell extracts were then prepared in order to measure p21 levels by western analysis (FIG. 3A). Although the ability of modified polyamines to induce p21 is known in the literature (Kramer, D. et al., Cancer Res. 59:1278-1286, 1999), it is a novel aspect of this invention that those chemoprotective polyamines with longer aliphatic “arms” were better able to induce expression of p21 as shown in FIG. 4.

[6] = Expt. 1, read-out: IC50 (drug concentration that caused a 50% inhibition of cell growth), Expt. 1
[7] = Expt. 2, read-out: IC50 (drug concentration that caused a 50% inhibition of cell growth), Expt. 2
[8] = Expt. 1 (first or only value in cell), read-out: DNA Bind/ppt. IC50, Expt. 1
[9] = Expt. 2 (second value in cell), read-out: DNA Bind/ppt. IC50, Expt. 2
[10] = 23SK cells treated for 72 hr (FIG. 5C)

SMILES: O=P1(N(CCCl)CCCl)NCCCO1 (stereo not drawn) [CTX, cyclophosphamide(cytoxan)]
hair loss induced [1]: 100%

SMILES: CN[C@H]1CCc2cc(OC)c(OC)c(OC)c2-c2ccc(OC)c(=O)cc21 [Colcemid, reference compound]
Cell Cycle Distribution At IC80 Dose: G1 [2]: 8%
Cell Cycle Distribution At IC80 Dose: G2/M [2]: 81%
Cell Cycle Distribution At IC80 Dose: S [2]: 11%

SMILES: CCNCCCCNCC=C(CNCC)CNCCCCNCC [PrC-110]
Cell Cycle Distribution At IC80 Dose: G1 [2]: 60%
Cell Cycle Distribution At IC80 Dose: G2/M [2]: 14%
Cell Cycle Distribution At IC80 Dose: S [2]: 26%

SMILES: CCNCCCCNCCCCNCC=C(CNCC)CNCCCCNCCCCNCC [PrC-111]
Cell Cycle Distribution At IC80 Dose: G1 [2]: 60%
Cell Cycle Distribution At IC80 Dose: G2/M [2]: 14%
Cell Cycle Distribution At IC80 Dose: S [2]: 25%

SMILES: CCNCCCCNCCCCNCCCCNCC=C(CNCC)CNCCCCNCCCCNCCCCNCC [PrC-112]
Cell Cycle Distribution At IC80 Dose: G1 [2]: 61%
Cell Cycle Distribution At IC80 Dose: G2/M [2]: 16%
Cell Cycle Distribution At IC80 Dose: S [2]: 23%

SMILES: CCNCCCCNCCCCNCCCCNCCCCNCC=C(CNCC)CNCCCCNCCCCNCCCCNCCCCNCC [PrC-113]
Cell Cycle Distribution At IC80 Dose: G1 [2]: 77%
Cell Cycle Distribution At IC80 Dose: G2/M [2]: 14%
Cell Cycle Distribution At IC80 Dose: S [2]: 8%

IC50 [4, 8]: 94 µM
SMILES: CCNCCCCNCC=C(CS)CNCCCCNCC [PrC-114]
IC50 [3, 6]: 850 µM
IC50 [3, 7]: 240 µM

IC50 [4, 8]: 37 µM
IC50 [4, 9]: 83 µM
SMILES: CCNCCCCNCCCCNCC=C(CS)CNCCCCNCCCCNCC [PrC-115]
IC50 [3, 6]: 4100 µM
IC50 [3, 7]: 1090 µM

IC50 [4, 8]: 82 µM
IC50 [4, 9]: 63 µM
SMILES: CCNCCCCNCCCCNCCCCNCC=C(CS)CNCCCCNCCCCNCCCCNCC [PrC-116]
IC50 [3, 6]: 5.8 µM
Cell Cycle Distribution At IC80 Dose: G1 [2]: 66%
Cell Cycle Distribution At IC80 Dose: G2/M [2]: 23%
Cell Cycle Distribution At IC80 Dose: S [2]: 11%
p21 fold-induction at IC80 Dose [5]: 2.32 fold

IC50 [4, 8]: 58 µM
IC50 [4, 9]: 57 µM
SMILES: CCNCCCCNCCCCNCCCCNCCCCNCC=C(CS)CNCCCCNCCCCNCCCCNCCCCNCC [PrC-117]
IC50 [3, 6]: 0.32 µM
IC50 [3, 7]: 0.24 µM
cells in G1 compartment [2, 10]: 86.23%
cells in S+G2 compartments [2, 10]: 13.77%
Cell Cycle Distribution At IC80 Dose: G1 [2]: 86%
Cell Cycle Distribution At IC80 Dose: G2/M [2]: 3%
Cell Cycle Distribution At IC80 Dose: S [2]: 11%
distribution within cell cycle compartments after drug removal ([2]; 72 hr treatment, then 48 hr in medium devoid of compound (FIG. 5D)): basically returned to that seen in cells previously untreated with chemoprotective polyamine
p21 fold-induction at IC80 Dose [5]: ˜3.0 fold

IC50 [4, 8]: 57 µM
SMILES: CCNCCCCNCCCCNCCCCNCCCCNCC=C(CNC)CNCCCCNCCCCNCCCCNCCCCNCC [PrC-120]
IC50 [3, 6]: 0.22 µM
IC50 [3, 7]: 0.18 µM
p21 fold-induction at IC80 Dose [5]: 2.01 fold

IC50 [4, 8]: 49 µM
SMILES: CCNCCCCNCCCCNCCCCNCCCCNCC=C(CNCCCCNCCCCNCCCCNCCCCNCC)CN(C)C [PrC-121]
IC50 [3, 6]: 0.15 µM
Cell Cycle Distribution At IC80 Dose: G1 [2]: 76%
Cell Cycle Distribution At IC80 Dose: G2/M [2]: 20%
Cell Cycle Distribution At IC80 Dose: S [2]: 4%
p21 fold-induction at IC80 Dose [5]: 3.26 fold
